The values that follow come from US11572362B2, “Pyrrolo[1,2-b]pyridazine derivatives” (Gilead Sciences, Inc., priority 2018, dated 2023).

One experiment concerns TNFα. Put plainly: IRAK4 Monocyte TNFα Cell Based Assay. The following applies: Monocyte; cryopreserved human monocytes, 50 pg/ml LPS, compound 1 hour pre-treatment, 4 hours stimulation, TNFα by TR-FRET. The method in brief: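 Monocytes at 5,000 cells/well were pre-treated with compound for 1 h at 37 °C (0.1% DMSO final), then stimulated with 50 pg/ml LPS for 4 h. Secreted TNFα in supernatant was measured by TR-FRET (665/615 ratio), expressed as % control relative to unstimulated and stimulated cells.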
Background: TR-FRET usually uses a lanthanide donor and a delayed reading to cut background.

The next experiment concerns the target IRAK4 (Homo sapiens (Human), UniProt Q9NWZ3). The experiment can be described thus: IRAK4 Biochemical Assay (TR-FRET/HTRF). The note with it: IRAK4 enzyme 0.75 nM, 500 μM ATP, 2 μM STK1 peptide, 120 min. In a few lines:
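Recombinant IRAK4 (0.75 nM) with 2 µM STK1 peptide and 500 µM ATP in pH 7.0 HEPES/Mg buffer; compound preincubated 15 min with enzyme and peptide, then 120 min reaction at room temperature. HTRF readout: cryptate anti-phospho-peptide antibody, 665/615 nm ratio; % inhibition against no-inhibitor and saturating-staurosporine controls.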

Some results are limits rather than exact numbers.

Chain of IRAK4 (Q9NWZ3 whole entry): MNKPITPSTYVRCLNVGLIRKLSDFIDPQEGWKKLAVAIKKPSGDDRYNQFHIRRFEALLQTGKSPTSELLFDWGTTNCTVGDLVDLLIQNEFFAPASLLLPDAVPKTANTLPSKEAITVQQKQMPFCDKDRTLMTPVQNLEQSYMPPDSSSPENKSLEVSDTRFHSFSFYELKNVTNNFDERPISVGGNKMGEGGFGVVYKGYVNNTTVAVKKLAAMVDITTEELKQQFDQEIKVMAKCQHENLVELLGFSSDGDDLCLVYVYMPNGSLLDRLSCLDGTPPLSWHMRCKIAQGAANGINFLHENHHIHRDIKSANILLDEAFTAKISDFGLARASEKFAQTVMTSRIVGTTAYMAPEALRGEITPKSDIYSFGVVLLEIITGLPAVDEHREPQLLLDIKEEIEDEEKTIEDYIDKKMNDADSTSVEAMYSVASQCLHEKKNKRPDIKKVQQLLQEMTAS

For orientation: EC50 means the concentration that produces a half-maximal response. Broadly, the IC50 is the concentration that gives 50% inhibition. Regarding `CC(C)(O)[C@H](F)CNC(=O)c1cnc(-c2ccc3cc(C#N)cnn23)cc1N[C@H]1CC[C@H](c2nc(C(F)F)co2)CC1` [Compound 46, 6-(3-cyanopyrrolo[1,2-b]pyridazin-7-yl)-4-(((1r,4R)-4-(4-(difluoromethyl)oxazol-2-yl)cyclohexyl)amino)-N-((R)-2-fluoro-3-hydroxy-3-methylbutyl)nicotinamide], in the experiment with TNFα, the EC50 was 124 nM. On IRAK4, the IC50 was 2 nM.
For `CC(C)(O)[C@H](F)CNC(=O)c1cnc(-c2ccc3cc(C#N)cnn23)cc1N[C@H]1CC[C@H](c2cc(C(F)F)no2)CC1` [Compound 47, 6-(3-cyanopyrrolo[1,2-b]pyridazin-7-yl)-4-(((1r,4R)-4-(3-(difluoromethyl)isoxazol-5-yl)cyclohexyl)amino)-N-((R)-2-fluoro-3-hydroxy-3-methylbutyl)nicotinamide] the same measures were 89 nM and 2 nM.
On to `Cc1ncoc1[C@@H]1CCC[C@@H](Nc2cc(-c3ccc4cc(C#N)cnn34)ncc2C(=O)NC[C@@H](F)C(C)(C)O)C1` [Compound 48, 6-(3-cyanopyrrolo[1,2-b]pyridazin-7-yl)-N-((R)-2-fluoro-3-hydroxy-3-methylbutyl)-4-(((1R,3R)-3-(4-methyloxazol-5-yl)cyclohexyl)amino)nicotinamide], for which, in the experiment on TNFα, the EC50 turned out to be 1050 nM. On IRAK4, this compound displayed an IC50 of 10 nM.
Turning to `CC(C)(O)[C@H](F)CNC(=O)c1cnc(-c2ccc3cc(C#N)cnn23)cc1N[C@H]1CC[C@H](c2cncs2)CC1` [Compound 49, 6-(3-cyanopyrrolo[1,2-b]pyridazin-7-yl)-N-((R)-2-fluoro-3-hydroxy-3-methylbutyl)-4-(((1r,4R)-4-(thiazol-5-yl)cyclohexyl)amino)nicotinamide], the EC50 with TNFα came out at 13 nM. In addition, the IC50 against IRAK4 was less than 1 nM.
The matching figures for `Cc1ncc([C@H]2CC[C@H](Nc3cc(-c4ccc5cc(C#N)cnn45)ncc3C(=O)NC[C@@H](F)C(C)(C)O)CC2)s1` [Compound 50, 6-(3-cyanopyrrolo[1,2-b]pyridazin-7-yl)-N-((R)-2-fluoro-3-hydroxy-3-methylbutyl)-4-(((1r,4R)-4-(2-methylthiazol-5-yl)cyclohexyl)amino)nicotinamide]: 52 nM and 1 nM.
Take `CC(C)(O)[C@H](F)CNC(=O)c1cnc(-c2ccc3cc(C#N)cnn23)cc1NC1CCC(c2cnc(C(F)F)s2)CC1` (stereo partly drawn) [Compound 51, (R)-6-(3-cyanopyrrolo[1,2-b]pyridazin-7-yl)-4-((4-(2-(difluoromethyl)thiazol-5-yl)cyclohexyl)amino)-N-(2-fluoro-3-hydroxy-3-methylbutyl)nicotinamide]: in the experiment with TNFα, the EC50 was determined as 76 nM. The same compound came in with an IC50 against IRAK4 of 3 nM.
For `Cc1nnc([C@H]2CC[C@H](Nc3cc(-c4ccc5cc(C#N)cnn45)ncc3C(=O)NC[C@@H](F)C(C)(C)O)CC2)s1` [Compound 52, 6-(3-cyanopyrrolo[1,2-b]pyridazin-7-yl)-N-((R)-2-fluoro-3-hydroxy-3-methylbutyl)-4-(((1r,4R)-4-(5-methyl-1,3,4-thiadiazol-2-yl)cyclohexyl)amino)nicotinamide] the same measures were 50 nM and 1 nM.
On to `CC(C)(O)[C@H](F)CNC(=O)c1cnc(-c2ccc3cc(C#N)cnn23)cc1N[C@H]1CC[C@H](c2nnc(C(F)F)s2)CC1` [Compound 53, 6-(3-cyanopyrrolo[1,2-b]pyridazin-7-yl)-4-(((1r,4R)-4-(5-(difluoromethyl)-1,3,4-thiadiazol-2-yl)cyclohexyl)amino)-N-((R)-2-fluoro-3-hydroxy-3-methylbutyl)nicotinamide], for which the EC50 in the experiment with TNFα was 27 nM. Further, the IC50 against IRAK4 was less than 1 nM.
Regarding `CC(C)(O)[C@H](F)CNC(=O)c1cnc(-c2ccc3cc(C#N)cnn23)cc1N[C@H]1CC[C@H](c2ccccn2)CC1` [Compound 54, 6-(3-cyanopyrrolo[1,2-b]pyridazin-7-yl)-N-((R)-2-fluoro-3-hydroxy-3-methylbutyl)-4-(((1r,4R)-4-(pyridin-2-yl)cyclohexyl)amino)nicotinamide], the EC50 in the experiment on TNFα is 18 nM. The same compound displayed an IC50 at IRAK4 of less than 1 nM.
On to `CC(C)(O)[C@H](F)CNC(=O)c1cnc(-c2ccc3cc(C#N)cnn23)cc1N[C@H]1CC[C@H](c2cccnc2)CC1` [Compound 55, 6-(3-cyanopyrrolo[1,2-b]pyridazin-7-yl)-N-((R)-2-fluoro-3-hydroxy-3-methylbutyl)-4-(((1r,4R)-4-(pyridin-3-yl)cyclohexyl)amino)nicotinamide], for which, in the experiment on TNFα, the EC50 amounted to 25 nM. At IRAK4, the IC50 is less than 1 nM.
`CC(C)(O)[C@H](F)CNC(=O)c1cnc(-c2ccc3cc(C#N)cnn23)cc1N[C@H]1CC[C@H](c2cncnc2)CC1` [Compound 57, 6-(3-cyanopyrrolo[1,2-b]pyridazin-7-yl)-N-((R)-2-fluoro-3-hydroxy-3-methylbutyl)-4-(((1r,4R)-4-(pyrimidin-5-yl)cyclohexyl)amino)nicotinamide]: the EC50 in the experiment with TNFα is 11 nM. For the same compound, 2 nM corresponded to half-maximal inhibition on IRAK4 (IC50).
Turning to `Cc1ncc(C2CCC(Nc3cc(-c4ccc5cc(C#N)cnn45)ncc3C(=O)NC[C@@H](F)C(C)(C)O)CC2)cn1` (stereo partly drawn) [Compound 58, (R)-6-(3-cyanopyrrolo[1,2-b]pyridazin-7-yl)-N-(2-fluoro-3-hydroxy-3-methylbutyl)-4-((4-(2-methylpyrimidin-5-yl)cyclohexyl)amino)nicotinamide], the EC50 in the experiment on TNFα was 112 nM. At IRAK4, the IC50 came out at 4 nM.
Turning to `CC(C)(O)[C@H](F)CNC(=O)c1cnc(-c2ccc3cc(C#N)cnn23)cc1NC1CCC(c2cnc(C(F)F)nc2)CC1` (stereo partly drawn) [Compound 59, (R)-6-(3-cyanopyrrolo[1,2-b]pyridazin-7-yl)-4-((4-(2-(difluoromethyl)pyrimidin-5-yl)cyclohexyl)amino)-N-(2-fluoro-3-hydroxy-3-methylbutyl)nicotinamide], the EC50 in the experiment with TNFα was 21 nM. The same compound displayed an IC50 at IRAK4 of 1 nM.
Turning to `Cc1nnc(C23CCC(Nc4cc(-c5ccc6cc(C#N)cnn56)ncc4C(=O)NC[C@@H](F)C(C)(C)O)(CC2)CC3)o1` [Compound 60, (R)-6-(3-cyanopyrrolo[1,2-b]pyridazin-7-yl)-N-(2-fluoro-3-hydroxy-3-methylbutyl)-4-((4-(5-methyl-1,3,4-oxadiazol-2-yl)bicyclo[2.2.2]octan-1-yl)amino)nicotinamide], the EC50 in the experiment with TNFα was determined as 15 nM. This compound registered an IC50 against IRAK4 of less than 1 nM.
Turning to `CC(C)(O)[C@H](F)CNC(=O)c1cnc(-c2ccc3cc(C#N)cnn23)cc1NC12CCC(c3nncs3)(CC1)CC2` [Compound 61, (R)-4-((4-(1,3,4-thiadiazol-2-yl)bicyclo[2.2.2]octan-1-yl)amino)-6-(3-cyanopyrrolo[1,2-b]pyridazin-7-yl)-N-(2-fluoro-3-hydroxy-3-methylbutyl)nicotinamide], in the experiment on TNFα, the EC50 was 4 nM. At IRAK4, this compound had an IC50 of less than 1 nM.
For `CC(C)(O)[C@H](F)CNC(=O)c1cnc(-c2ccc3cc(C#N)cnn23)cc1NC12CCC(c3nnc(C(F)F)o3)(CC1)CC2` [Compound 62, (R)-6-(3-cyanopyrrolo[1,2-b]pyridazin-7-yl)-4-((4-(5-(difluoromethyl)-1,3,4-oxadiazol-2-yl)bicyclo[2.2.2]octan-1-yl)amino)-N-(2-fluoro-3-hydroxy-3-methylbutyl)nicotinamide] the same measures were 19 nM and less than 1 nM.
For `CC(C)(O)[C@H](F)CNC(=O)c1cnc(-c2ccc3cc(C#N)cnn23)cc1N[C@@H]1CC[C@@H](c2nnc(C(F)F)o2)OC1` [Compound 63, 6-(3-cyanopyrrolo[1,2-b]pyridazin-7-yl)-4-(((3R,6S)-6-(5-(difluoromethyl)-1,3,4-oxadiazol-2-yl)tetrahydro-2H-pyran-3-yl)amino)-N-((R)-2-fluoro-3-hydroxy-3-methylbutyl)nicotinamide] the same measures were 39 nM and less than 1 nM.
For `Cc1nnc(C23CCC(Nc4cc(-c5ccc6cc(C#N)cnn56)ncc4C(=O)NC[C@@H](F)C(C)(C)O)(CC2)CO3)o1` [Compound 64, (R)-6-(3-cyanopyrrolo[1,2-b]pyridazin-7-yl)-N-(2-fluoro-3-hydroxy-3-methylbutyl)-4-((1-(5-methyl-1,3,4-oxadiazol-2-yl)-2-oxabicyclo[2.2.2]octan-4-yl)amino)nicotinamide] the same measures were 19 nM and less than 1 nM.
Consider `CC(C)(O)[C@H](F)CNC(=O)c1cnc(-c2ccc3cc(C#N)cnn23)cc1NC12CCC(c3nnc(C(F)F)o3)(CC1)OC2` [Compound 65, (R)-6-(3-cyanopyrrolo[1,2-b]pyridazin-7-yl)-4-((1-(5-(difluoromethyl)-1,3,4-oxadiazol-2-yl)-2-oxabicyclo[2.2.2]octan-4-yl)amino)-N-(2-fluoro-3-hydroxy-3-methylbutyl)nicotinamide], for which the EC50 in the experiment on TNFα is 23 nM. In addition, the midpoint of inhibition against IRAK4, the IC50, lay at 1 nM.
Turning to `CC(C)(O)[C@H](F)CNC(=O)c1cnc(-c2ccc3cc(C#N)cnn23)cc1NC12CCC(c3cnco3)(CC1)CC2` [Compound 66, (R)-6-(3-cyanopyrrolo[1,2-b]pyridazin-7-yl)-N-(2-fluoro-3-hydroxy-3-methylbutyl)-4-((4-(oxazol-5-yl)bicyclo[2.2.2]octan-1-yl)amino)nicotinamide], the EC50 with TNFα worked out at 8 nM. Moreover, at IRAK4, the IC50 was less than 1 nM.
For the compound `CC(C)(O)[C@H](F)CNC(=O)c1cnc(-c2ccc3cc(C#N)cnn23)cc1N[C@H]1CC[C@H](C2CCOCC2)CC1` [Compound 67, 6-(3-cyanopyrrolo[1,2-b]pyridazin-7-yl)-N-((R)-2-fluoro-3-hydroxy-3-methylbutyl)-4-(((1r,4R)-4-(tetrahydro-2H-pyran-4-yl)cyclohexyl)amino)nicotinamide], the EC50 in the experiment with TNFα is 41 nM. The IC50 at IRAK4 amounted to 1 nM.
